Holding throughout (format): cell-based
Assay [1] concerns human hepatocellular carcinoma cell line SNU398. As to the kind of experiment: Caspase cascade activation in SNU398 cells. Conditions: Homo sapiens, SNU-398, 48 h, read-out: Caspase activation Potency EC50 SNU398 (48 h). In short, it runs like this: (§1)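 Cells were exposed to compound at 0.016 to 10 μM final for 24 h or 48 h at 37 °C. They were then lysed with 14 μM N-(Ac-DEVD)-N′-ethoxycarbonyl-R110 in lysolecithin/DTT/PIPES buffer pH 7.2 for 3 h at room temperature (ex 485/em 530 nm). EC50 came from a sigmoidal fit of net RFU relative to untreated control.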

Assay [2] shares this test system. In words: Inhibition of cell proliferation (GI50) in SNU398 cells. Conditions: SNU-398, Table IV, read-out: GI50 in Multi-Cancer Cells SNU398. How it is done: (§2) Human breast cancer cell lines T-47D, MX-1 and MDAMB435, human colon cancer cell line HT29, and human lung cancer cell line H1299 were grown and harvested as in Example 75. An aliquot of […] of cells (4.4×10^4 cells/mL) was added to a well of a 96-well microtiter plate containing 5 μL of a 10% DMSO in RPMI-1640 media solution containing 10 nM to 100 μM of N-(2,5-dimethoxyphenyl)-2-methylthieno[3,2-d]pyrimidin-4-amine (1 nM to 10 μM final). An aliquot of 45 μL of cells was added to a well of a 96-well microtiter plate containing 5 μL of a 10% DMSO in RPMI-1640 media solution without compound as the control sample for maximal cell proliferation (Lmax). The samples were mixed by agitation and then incubated at 37° C. for 48 h in a 5% CO2-95% humidity incubator. After incubation, the samples were removed from the incubator and 25 μL of CellTiter-Glo™ reagent (Promega) was added. The samples were mixed by agitation and incubated at room temperature for 10-15 min. Plates were then read using a luminescent plate reader (Model SPECTRAfluor Plus, Tecan) to give Ltest values.
(§3) Baseline for GI50 (dose for 50% inhibition of cell proliferation) of initial cell numbers was determined by adding an aliquot of 45 μL of cells or 45 μL of media, respectively, to wells of a 96-well microtiter plate containing 5 μL of a 10% DMSO in RPMI-1640 media solution. The samples were mixed by agitation and then incubated at 37° C. for 0.5 h in a 5% CO2-95% humidity incubator. After incubation, the samples were removed from the incubator and 25 μL of CellTiter-Glo™ reagent (Promega) was added. The samples were mixed by agitation and incubated at 37° C. for 10-15 min at room temperature in a 5% CO2-95% humidity incubator. Fluorescence was read as above, (LStart) defining luminescence for initial cell number used as baseline in GI50 determinations.
(§4) GI50 (dose for 50% inhibition of cell proliferation) is the concentration where [(LTest−Lstart)/(LMax−Lstart)]=0.5.
(§5) Several compounds were tested in multi cancer cell lines, including human breast cancer cell lines T-47D, MX-1, SKBR3 and MDAMB435, human hepatocellular carcinoma cell line SNU398, human colon carcinoma cell line HCT116, human sarcoma cell line MES-SA and multi-drug resistant (MDR) human sarcoma cell line MES-SA/ADR, murine leukemia cell line P388 and multi-drug resistant (MDR) murine leukemia cell line P388ADR, and the data are summarized in Table IV.

Assay [3] has as its system murine leukemia cell line P388. As to the kind of experiment: Inhibition of cell proliferation (GI50) in P388 cells. Conditions: Mus musculus, Table IV, read-out: GI50 in Multi-Cancer Cells P388. How it is done: as §2, §3, §4, §5
Assay [4] deals with human sarcoma cell line MES-SA. In words: Inhibition of cell proliferation (GI50) in MES-SA cells. Conditions: Table IV, read-out: GI50 in Multi-Cancer Cells MES-SA. On the procedure: as §2, §3, §4, §5
The subject of assay [5] is human colon carcinoma cell line HCT116. In words: Inhibition of cell proliferation (GI50) in HCT116 cells. The settings on record: HCT-116, Table IV, read-out: GI50 in Multi-Cancer Cells HCT116. How it is done:
as §2, §3, §4, §5

Assay [6] shares this test system. As to the kind of experiment: Caspase cascade activation in HCT116 cells. The settings on record: Homo sapiens, HCT-116, 48 h, read-out: Caspase activation Potency EC50 HCT116 (48 h). In outline: as §1
For assay [7], the system named is human lung cancer cell line H1299. In words: Caspase cascade activation in H1299 cells. The settings on record: NCI-H1299, 24 h, read-out: Caspase activation Potency EC50 H1299 (24 h). In short, it runs like this: as §1
In assay [8] the test system is human breast cancer cell line SKBR3. In words: Inhibition of cell proliferation (GI50) in SKBR3 cells. Conditions: SK-BR-3, Table IV, read-out: GI50 in Multi-Cancer Cells SKBR3. On the procedure: as §2, §3, §4, §5
Assay [9] concerns human breast cancer cell line T-47D. In words: Inhibition of cell proliferation (GI50, CellTiter-Glo) in T-47D cells. The settings on record: T47D cells. How it is done: as §2, §3, §4
[10] abbreviates: Table IV, read-out: GI50 in Multi-Cancer Cells T47D.

Counter-ions that a name gives are not always drawn. Like-named read-outs stand apart in the source and are kept apart here.

Turning to `COc1ccc(OC)c(Nc2ncnc3ccsc23)c1` [Example 2, N-(2,5-Dimethoxyphenyl)thieno[3,2-d]pyrimidin-4-amine], the EC50 (usually the midpoint of the concentration-response curve) in assay [1] was determined as 1610 nM; in assay [6] it was 5000 nM; in [7], 2910 nM. Besides, the GI50 – broadly, the concentration giving 50% growth inhibition – in [2] was determined as 2100 nM; in [3] it was 2060 nM; in assay [4], 5190 nM; in assay [5], 4980 nM; in [8], 500 nM; in assay [9] (Table III, 48 h, read-out: GI50 in Cancer Cells T47D), 65 nM. Further, in [9] (setting [10]), the GI50 amounted to 340 nM.

On to `COc1cc(Nc2ncnc3ccsc23)cc(OC)c1` [Example 12, N-(3,5-Dimethoxyphenyl)thieno[3,2-d]pyrimidin-4-amine hydrochloride], for which the values for the EC50 in assay [1], in [6] and in [7] were 249 nM, 279 nM and 303 nM, respectively. For the same compound, the GI50 in assay [2] came to 706 nM; in assay [3], 540 nM; in assay [4], 364 nM; in assay [5], 1250 nM; in assay [8], 60 nM; in [9] (setting [10]), 20 nM.

For the origin of these results see patent US20070099877A1, “N-aryl-thienopyrimidin-4-amines and analogs as activators of caspases and inducers of apoptosis and the use thereof” (Cytovia, Inc., priority 2005, published 2007).
